Reference: PubChem BioAssay (NCI)
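Cells were grown in 96-well plates and exposed to each compound for 48 hours at five concentrations; endpoints were interpolated linearly between bracketing concentrations, or set to the highest concentration if not reached. Abbreviation: GI50, concentration required for 50% inhibition of growth. TGI marks complete inhibition of growth.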

Tests used:
Experiment in all cases: NCI-60 cell line screen, 48 h
HOP-92 NSCLC = tested on: HOP-92 NSCLC
SNB-75 CNS = tested on: SNB-75 CNS
SF-539 CNS = tested on: SF-539 CNS
M14 melanoma = tested on: M14 melanoma
MOLT-4 leukemia = tested on: MOLT-4 leukemia
IGROV1 ovarian = tested on: IGROV1 ovarian
PC-3 prostate = tested on: PC-3 prostate
EKVX NSCLC = tested on: EKVX NSCLC
UO-31 renal = tested on: UO-31 renal
SW-620 colon = tested on: SW-620 colon
NCI-H23 lung = tested on: NCI-H23 lung
COLO 205 colon = tested on: COLO 205 colon
TK-10 renal = tested on: TK-10 renal
UACC-62 melanoma = tested on: UACC-62 melanoma
HCC-2998 colon = tested on: HCC-2998 colon
LOX IMVI melanoma = tested on: LOX IMVI melanoma
K-562 leukemia = tested on: K-562 leukemia
KM12 colon = tested on: KM12 colon
SF-295 CNS = tested on: SF-295 CNS
A498 renal = tested on: A498 renal
786-0 renal = tested on: 786-0 renal
NCI-H460 lung = tested on: NCI-H460 lung
SK-MEL-2 melanoma = tested on: SK-MEL-2 melanoma
OVCAR-5 ovarian = tested on: OVCAR-5 ovarian
MDA-MB-435 = tested on: MDA-MB-435
RPMI-8226 leukemia = tested on: RPMI-8226 leukemia
BT-549 breast = tested on: BT-549 breast
OVCAR-4 ovarian = tested on: OVCAR-4 ovarian
CAKI-1 renal = tested on: CAKI-1 renal
SR leukemia = tested on: SR leukemia
HOP-62 NSCLC = tested on: HOP-62 NSCLC
SK-MEL-5 melanoma = tested on: SK-MEL-5 melanoma
NCI-H522 lung = tested on: NCI-H522 lung
SF-268 CNS = tested on: SF-268 CNS
SNB-19 CNS = tested on: SNB-19 CNS
ACHN renal = tested on: ACHN renal
HCT-116 colon = tested on: HCT-116 colon
HCT-15 colon = tested on: HCT-15 colon
U251 CNS = tested on: U251 CNS
RXF 393 renal = tested on: RXF 393 renal
HL-60(TB) leukemia = tested on: HL-60(TB) leukemia
DU-145 prostate = tested on: DU-145 prostate
SK-MEL-28 melanoma = tested on: SK-MEL-28 melanoma
MCF7 breast = tested on: MCF7 breast
SK-OV-3 ovarian = tested on: SK-OV-3 ovarian
MDA-MB-231 breast = tested on: MDA-MB-231 breast
SN12C renal = tested on: SN12C renal
UACC-257 melanoma = tested on: UACC-257 melanoma
T-47D breast = tested on: T-47D breast
MALME-3M melanoma = tested on: MALME-3M melanoma
OVCAR-3 ovarian = tested on: OVCAR-3 ovarian
OVCAR-8 ovarian = tested on: OVCAR-8 ovarian
NCI-H226 lung = tested on: NCI-H226 lung
CCRF-CEM leukemia = tested on: CCRF-CEM leukemia
NCI/ADR-RES ovarian = tested on: NCI/ADR-RES ovarian
HT29 colon = tested on: HT29 colon
HS 578T breast = tested on: HS 578T breast
A549 NSCLC = tested on: A549 NSCLC

O=C(N/N=C\c1ccc([N+](=O)[O-])cc1)c1ccc2nc(-c3ccc(Br)cc3)[nH]c2c1
GI50 (HOP-92 NSCLC): 2580 nM
TGI (HOP-92 NSCLC): 9260 nM
GI50 (SNB-75 CNS): 3790 nM
TGI (SNB-75 CNS): 20000 nM
GI50 (SF-539 CNS): 1920 nM
TGI (SF-539 CNS): 7900 nM
GI50 (M14 melanoma): 1400 nM
TGI (M14 melanoma): 6690 nM
GI50 (MOLT-4 leukemia): 912 nM
TGI (MOLT-4 leukemia): 4390 nM
GI50 (IGROV1 ovarian): 1610 nM
TGI (IGROV1 ovarian): 14800 nM
GI50 (PC-3 prostate): 1300 nM
TGI (PC-3 prostate): 9400 nM
GI50 (EKVX NSCLC): 1810 nM
TGI (EKVX NSCLC): 97500 nM
GI50 (UO-31 renal): 2160 nM
TGI (UO-31 renal): > 51100 nM
GI50 (SW-620 colon): 1270 nM
TGI (SW-620 colon): 4950 nM
GI50 (NCI-H23 lung): 398 nM
TGI (NCI-H23 lung): 3160 nM
GI50 (COLO 205 colon): 842 nM
TGI (COLO 205 colon): 2100 nM
GI50 (TK-10 renal): 2960 nM
TGI (TK-10 renal): 26000 nM
GI50 (UACC-62 melanoma): 1610 nM
TGI (UACC-62 melanoma): 14500 nM
GI50 (HCC-2998 colon): 1300 nM
TGI (HCC-2998 colon): 3960 nM
GI50 (LOX IMVI melanoma): 978 nM
TGI (LOX IMVI melanoma): 3140 nM
GI50 (K-562 leukemia): 882 nM
TGI (K-562 leukemia): 4180 nM
GI50 (KM12 colon): 1200 nM
TGI (KM12 colon): 9300 nM
GI50 (SF-295 CNS): 1300 nM
TGI (SF-295 CNS): 13400 nM
GI50 (A498 renal): 1620 nM
TGI (A498 renal): 8340 nM
GI50 (786-0 renal): 2920 nM
TGI (786-0 renal): 13000 nM
GI50 (NCI-H460 lung): 914 nM
TGI (NCI-H460 lung): 2530 nM
GI50 (SK-MEL-2 melanoma): 3990 nM
TGI (SK-MEL-2 melanoma): 16600 nM
GI50 (OVCAR-5 ovarian): 2630 nM
TGI (OVCAR-5 ovarian): > 58800 nM
GI50 (MDA-MB-435): 1420 nM
TGI (MDA-MB-435): 5060 nM
GI50 (RPMI-8226 leukemia): 875 nM
TGI (RPMI-8226 leukemia): 2880 nM
GI50 (BT-549 breast): 911 nM
TGI (BT-549 breast): 3400 nM
GI50 (OVCAR-4 ovarian): 1450 nM
TGI (OVCAR-4 ovarian): > 43000 nM
GI50 (CAKI-1 renal): 1670 nM
TGI (CAKI-1 renal): 22600 nM
GI50 (SR leukemia): 891 nM
TGI (SR leukemia): 4550 nM
GI50 (HOP-62 NSCLC): 1900 nM
TGI (HOP-62 NSCLC): 10500 nM
GI50 (SK-MEL-5 melanoma): 912 nM
TGI (SK-MEL-5 melanoma): 2880 nM
GI50 (NCI-H522 lung): 903 nM
TGI (NCI-H522 lung): 2920 nM
GI50 (SF-268 CNS): 3870 nM
TGI (SF-268 CNS): 96900 nM
GI50 (SNB-19 CNS): 2290 nM
TGI (SNB-19 CNS): 39600 nM
GI50 (ACHN renal): 1920 nM
TGI (ACHN renal): > 51700 nM
GI50 (HCT-116 colon): 1020 nM
TGI (HCT-116 colon): 3680 nM
GI50 (HCT-15 colon): 1220 nM
TGI (HCT-15 colon): 14800 nM
GI50 (U251 CNS): 1110 nM
TGI (U251 CNS): 3410 nM
GI50 (RXF 393 renal): 1130 nM
TGI (RXF 393 renal): 3790 nM
GI50 (HL-60(TB) leukemia): 801 nM
TGI (HL-60(TB) leukemia): 4960 nM
GI50 (DU-145 prostate): 1630 nM
TGI (DU-145 prostate): > 54200 nM
GI50 (SK-MEL-28 melanoma): 1900 nM
TGI (SK-MEL-28 melanoma): 11700 nM
GI50 (MCF7 breast): 704 nM
TGI (MCF7 breast): 2260 nM
GI50 (SK-OV-3 ovarian): 2900 nM
TGI (SK-OV-3 ovarian): > 70700 nM
GI50 (MDA-MB-231 breast): 2930 nM
TGI (MDA-MB-231 breast): 12000 nM
GI50 (SN12C renal): 1220 nM
TGI (SN12C renal): 14100 nM
GI50 (UACC-257 melanoma): 1260 nM
TGI (UACC-257 melanoma): 6350 nM
GI50 (T-47D breast): 955 nM
TGI (T-47D breast): 3280 nM
GI50 (MALME-3M melanoma): 1270 nM
TGI (MALME-3M melanoma): 4630 nM
GI50 (OVCAR-3 ovarian): 3080 nM
TGI (OVCAR-3 ovarian): 7950 nM
GI50 (OVCAR-8 ovarian): 979 nM
TGI (OVCAR-8 ovarian): 4620 nM
GI50 (NCI-H226 lung): 2580 nM
TGI (NCI-H226 lung): > 54700 nM
GI50 (CCRF-CEM leukemia): 1340 nM
TGI (CCRF-CEM leukemia): 8010 nM
GI50 (NCI/ADR-RES ovarian): 18500 nM
TGI (NCI/ADR-RES ovarian): > 100000 nM
GI50 (HT29 colon): 939 nM
TGI (HT29 colon): 2680 nM
GI50 (HS 578T breast): 1590 nM
TGI (HS 578T breast): 17000 nM
GI50 (A549 NSCLC): 1610 nM
TGI (A549 NSCLC): > 31200 nM
